Data set [1] relates to HUVEC. In words: Ratio of 2ME2 IC50 to compound IC50 for antiangiogenic activity against HUVEC. The format is functional, Homo sapiens.
For data set [2], the system named is HUVEC. In words: Antiangiogenic activity against HUVEC assessed as growth inhibition after 48 hrs by WST1 assay. Type of data set: functional, cell-based. Particulars: Homo sapiens. (Tetrazolium assays rely on reduction of a dye to a coloured formazan, in cell work by metabolically active cells.)
Data set [3] has as its system MCF7. Put plainly: Antiproliferative activity against human MCF7 cells after 48 hrs by WST1 assay. Type of data set: functional, cell-based.
The test system of data set [4] is MDA-MB-231. Put plainly: Ratio of 2ME2 IC50 to compound IC50 for human MDA-MB-231 cells. The format is functional.
The subject of data set [5] is MDA-MB-231. In words: Antiproliferative activity against human MDA-MB-231 cells after 48 hrs by WST1 assay. Type of data set: functional, cell-based. The note with it: MDA-MB-231, 48 h.
Data set [6] can be described thus: Half life in CD1 mouse at 45 mg/m'2 of body surface, po administered as single dose. Particulars: in vivo. Type of data set: ADME, organism-based.
Data set [7] in a line: Cmax in CD1 mouse at 45 mg/m'2 of body surface, po administered as single dose. Type of data set: ADME, organism-based. Particulars: in vivo. Details: route oral.
Data set [8] can be described thus: AUC (0 to infinity) in CD1 mouse at 45 mg/m'2 of body surface, po administered as single dose. Type of data set: ADME, organism-based. Details: time infinity, route oral. Particulars: plasma.
In data set [9] the test system is HUVEC. Put plainly: Ratio of compound IC50 to 2ME2 IC50 for antiangiogenic activity against HUVEC. Type of data set: functional, Homo sapiens.
Data set [10] concerns MDA-MB-231. Put plainly: Ratio of compound IC50 to 2ME2 IC50 for human MDA-MB-231 cells. Type of data set: functional.
Data set [11] has as its system Mus musculus. Put plainly: Ratio of compound Cmax to 2ME2 Cmax in CD1 mouse at 45 mg/m'2 of body surface, po administered as single dose. Type of data set: ADME, organism-based. Particulars: in vivo.
Data set [12] has as its system Mus musculus. Put plainly: Ratio of compound AUC (0 to infinity) to 2ME2 AUC (0 to infinity) in CD1 mouse at 45 mg/m'2 of body surface, po administered as single dose. The format is ADME, organism-based. Particulars: in vivo.

The structures appear in SMILES notation. The source made the active and inactive calls. No cut-off for these calls is given here.

Usually IC50 stands for the midpoint of a concentration-inhibition curve. Regarding `COc1cc2c(cc1NC=O)CC[C@@H]1[C@@H]2CC[C@]2(C)[C@@H](C)CC[C@@H]12`, the “Ratio IC50” value in data set [1] was determined as 3; in data set [4] it was 2. Also, the IC50 in data set [2] was found to be 0.59 µM; in [5], 0.61 µM. For the same compound, the outcome in [3] was Active.
For `COc1cc2c(cc1N)CC[C@@H]1[C@@H]2CC[C@]2(C)CCC[C@@H]12`, the IC50 in [2] is 4.72 µM; in data set [5], 7.38 µM. In addition, in data set [3], the outcome was Active.
As a reminder, the half-life is the time in which the quantity being followed falls by half. Read a low half-life as fast loss. One may read the Cmax as the highest concentration seen after dosing. Broadly, the AUC(0-inf) is the area under the concentration-time curve extrapolated to infinity. A higher AUC(0-inf) goes with more exposure. In the case of `COc1cc2c(cc1O)CC[C@@H]1[C@@H]2CC[C@]2(C)[C@@H](O)CC[C@@H]12` [2-METHOXYESTRADIOL], the half-life in data set [6] is 0.3 h. This compound had a peak concentration (Cmax) in data set [7] of 294 nM. The IC50 was 0.68 µM in [2] and 0.79 µM in data set [5]. Moreover, the result in data set [3] was Active. This compound had an AUC(0-inf) in data set [8] of 0.142 µM·h.
As to `COc1cc2c(cc1C(N)=O)CC[C@@H]1[C@@H]2CC[C@]2(C)C(=O)CC[C@@H]12`, the IC50 in data set [2] is 5.46 µM; in data set [5], 2.2 µM. The “Ratio IC50” value in [9] is 8. Moreover, the outcome in data set [3] was Active.
Take `C=Cc1cc2c(cc1OC)[C@H]1CC[C@]3(C)CCC[C@H]3[C@@H]1CC2`: the figures for the IC50 in data set [2] and in data set [5] were 0.58 µM and 1.86 µM, respectively. Moreover, the result in data set [3] was Active.
Regarding `C=C1CC[C@H]2[C@@H]3CCc4cc(N)c(OC)cc4[C@H]3CC[C@]12C`, the IC50 in data set [2] was found to be 1 µM; in data set [5], 2.11 µM. For the same compound, the result in data set [3] was Active.
Regarding `C/C=C1\CC[C@H]2[C@@H]3CCc4cc(NC=O)c(OC)cc4[C@H]3CC[C@]12C`, the figures for the “Ratio IC50” value in data set [1] and in [4] were 3 and 2, respectively. For the same compound, the results for the IC50 in data set [2] and in [5] were 0.58 µM and 0.56 µM, respectively. Further, the outcome in data set [3] was Active.
For the compound `COc1cc2c(cc1N)CC[C@@H]1[C@@H]2CC[C@]2(C)[C@@H](C)CC[C@@H]12`, the IC50 in [2] came out at 2.65 µM; in data set [5], 7.31 µM. Moreover, the result in [3] was Active.
In the same order, the values of `COC(=O)Oc1cc2c(cc1OC)[C@H]1CC[C@]3(C)C(=O)CC[C@H]3[C@@H]1CC2` are 32.9 µM, 25 µM and “Active”.
In the case of `COc1cc2c(cc1NC=O)CC[C@@H]1[C@@H]2CC[C@]2(C)C(=O)CC[C@@H]12`, the results for the “Ratio IC50” value in [1] and in data set [10] were 3 and 10, respectively. For the same compound, the IC50 in data set [2] was found to be 0.53 µM; in data set [5], 1.22 µM. The outcome in data set [3] was Active.
In the case of `COC(=O)Nc1cc2c(cc1OC)[C@H]1CC[C@]3(C)C(=O)CC[C@H]3[C@@H]1CC2`, the IC50 was determined as 8.22 µM in [2] and 5.6 µM in data set [5]. The result in [3] was Active.
Consider `C=C1CC[C@H]2[C@@H]3CCc4cc(NC=O)c(OC)cc4[C@H]3CC[C@]12C`, for which the “Ratio IC50” value is listed as 3 in data set [1] and 2 in [4]. In addition, the IC50 in [2] was 0.22 µM; in data set [5] it was 0.3 µM. Moreover, the result in data set [3] was Active.
`COc1cc2c(cc1N)CC[C@@H]1[C@@H]2CC[C@]2(C)C(=O)CC[C@@H]12`: the IC50 in data set [2] stood at 23.4 µM; in data set [5], 46.9 µM. In data set [3], the outcome was Active.
For the compound `COc1cc2c(cc1NC=O)CC[C@@H]1[C@@H]2CC[C@]2(C)CCC[C@@H]12`, the IC50 came out at 5.8 µM in [2] and 8.29 µM in data set [5]. Further, the “Ratio IC50” value in data set [9] is recorded as 8; in data set [10], 10. For the same compound, in data set [3], the result was Active.
The compound `COc1cc2c(cc1C(N)=O)CC[C@@H]1[C@@H]2CC[C@]2(C)CCC[C@@H]12` had a half-life in data set [6] of 1.1 h. In data set [7], this compound yielded a Cmax of 504 nM. The figures for the IC50 in data set [2] and in data set [5] were 1.19 µM and 1.86 µM, respectively. Also, the entries for the “Ratio IC50” value in data set [9] and in [10] were 8 and 3, respectively. Besides, the result in data set [3] was Active. The compound further registered an AUC(0-inf) in data set [8] of 2.53 µM·h.
Turning to `C/C=C1\CC[C@H]2[C@@H]3CCc4cc(N)c(OC)cc4[C@H]3CC[C@]12C`, the IC50 turned out to be 0.72 µM in data set [2] and 1.94 µM in data set [5]. The outcome in [3] was Active.
Take `CCNC(=O)c1cc2c(cc1OC)[C@H]1CC[C@]3(C)CCC[C@H]3[C@@H]1CC2`: the IC50 in [2] stood at 38 µM; in data set [5], 53 µM. For the same compound, the result in [3] was Active.
As for `COc1cc2c(cc1NC(C)=O)CC[C@@H]1[C@@H]2CC[C@]2(C)CCC[C@@H]12`, the IC50 in data set [2] was 1.68 µM; in data set [5], 9.25 µM. Besides, in data set [3], the outcome was Active.
On to `COc1cc2c(cc1NC(N)=O)CC[C@@H]1[C@@H]2CC[C@]2(C)C(=O)CC[C@@H]12`, for which the IC50 worked out at 0.61 µM in data set [2] and 0.71 µM in data set [5]. For the same compound, the result in [3] was Active.
For `COc1cc2c(cc1NC#N)CC[C@@H]1[C@@H]2CC[C@]2(C)C(=O)CC[C@@H]12` the same measures were 0.25 µM, 0.2 µM and “Active”.
As for `COc1cc2c(cc1C(N)=O)CC[C@@H]1[C@@H]2CC[C@]2(C)C=CC[C@@H]12`, the half-life in data set [6] was 2.1 h. Further, the “Ratio IC50” value in [1] is recorded as 5; in data set [4], 6. Also, the highest concentration (Cmax) in data set [7] is 1430 nM. Besides, the Ratio in data set [11] turned out to be 5; in data set [12] it was 23. Also, the IC50 in data set [2] amounted to 0.13 µM; in data set [5], 0.2 µM. The outcome in data set [3] was Active. Also, in data set [8], the AUC(0-inf) is 3.36 µM·h.
In [6], `C=C1CC[C@H]2[C@@H]3CCc4cc(C(N)=O)c(OC)cc4[C@H]3CC[C@]12C` had a half-life of 4.8 h. Also, the entries for the “Ratio IC50” value in data set [1] and in data set [4] were 5 and 6, respectively. In addition, in data set [7], the Cmax was determined as 334 nM. The IC50 in data set [2] was determined as 0.25 µM; in data set [5], 0.12 µM. Moreover, the result in [3] was Active. In data set [8], this compound displayed an AUC(0-inf) of 3.2 µM·h.

The values are drawn from ChEMBL document CHEMBL1154313, “Synthesis, antiproliferative, and pharmacokinetic properties of 3- and 17-double-modified analogs of 2-methoxyestradiol” (Bioorg Med Chem Lett, 2009).
